Measured values as given in patent publication US20240316047A1, “INHIBITORS OF RNA HELICASE DHX9 AND USES THEREOF” (ACCENT THERAPEUTICS, INC., priority 2022, published 2024).

Target: Human recombinant DHX9 protein (Homo sapiens (Human), UniProt Q08211)
Assay: DHX9 ATPase assay (ADP-Glo)
Type: biochemical
Conditions: for IC50: read-out: DHX9 Biochemical Inflection Point

Sequence of Human recombinant DHX9 protein (Q08211 whole entry): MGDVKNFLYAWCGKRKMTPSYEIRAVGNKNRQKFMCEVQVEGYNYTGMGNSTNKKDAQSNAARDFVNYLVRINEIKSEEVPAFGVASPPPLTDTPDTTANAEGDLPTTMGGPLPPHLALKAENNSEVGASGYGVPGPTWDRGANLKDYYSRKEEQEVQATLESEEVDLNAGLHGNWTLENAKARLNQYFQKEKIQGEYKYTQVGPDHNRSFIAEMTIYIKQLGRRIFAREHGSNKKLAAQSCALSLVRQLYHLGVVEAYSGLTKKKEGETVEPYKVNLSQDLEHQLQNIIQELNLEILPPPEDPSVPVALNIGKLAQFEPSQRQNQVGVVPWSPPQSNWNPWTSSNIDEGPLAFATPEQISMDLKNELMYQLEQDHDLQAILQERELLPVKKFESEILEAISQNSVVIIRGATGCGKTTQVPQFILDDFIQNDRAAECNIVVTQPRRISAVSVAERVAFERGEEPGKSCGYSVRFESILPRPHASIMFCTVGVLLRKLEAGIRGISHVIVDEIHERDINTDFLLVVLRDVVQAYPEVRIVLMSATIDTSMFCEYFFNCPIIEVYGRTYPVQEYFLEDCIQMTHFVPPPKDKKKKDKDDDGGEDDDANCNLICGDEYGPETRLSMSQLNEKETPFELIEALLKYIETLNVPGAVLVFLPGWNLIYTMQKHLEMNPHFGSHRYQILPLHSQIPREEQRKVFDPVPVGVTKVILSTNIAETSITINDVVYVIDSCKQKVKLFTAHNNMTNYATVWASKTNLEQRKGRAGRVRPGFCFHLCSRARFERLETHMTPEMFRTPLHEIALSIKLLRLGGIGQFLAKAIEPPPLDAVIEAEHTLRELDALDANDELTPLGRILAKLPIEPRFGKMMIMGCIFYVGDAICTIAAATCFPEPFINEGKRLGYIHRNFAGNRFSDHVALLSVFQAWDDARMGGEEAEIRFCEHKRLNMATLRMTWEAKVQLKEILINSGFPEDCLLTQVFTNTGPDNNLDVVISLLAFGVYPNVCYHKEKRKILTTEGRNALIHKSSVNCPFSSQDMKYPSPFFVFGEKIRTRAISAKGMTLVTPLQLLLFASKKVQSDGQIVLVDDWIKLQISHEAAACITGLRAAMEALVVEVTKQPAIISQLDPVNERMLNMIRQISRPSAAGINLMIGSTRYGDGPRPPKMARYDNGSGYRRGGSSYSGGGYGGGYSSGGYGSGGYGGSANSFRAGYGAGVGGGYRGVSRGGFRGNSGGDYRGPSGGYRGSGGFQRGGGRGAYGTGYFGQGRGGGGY

DHX9 Biochemical Max Inhibition | IC50 [nM] | SMILES
64.3 | 25.3 | CS(=O)(=O)Nc1cc(Cl)cc(NC(=O)c2cc(-c3ccc(N4CC(F)(F)C4)cn3)cs2)c1 [Example 487]
62.3 | 6.6 | Cn1cc(C(=O)Nc2cc(Cl)cc(NS(C)(=O)=O)c2)cc1-c1ncc(N2CC3(C2)CC(F)(F)C3)cn1 [Example 492]
55.9 | 26.9 | Cn1cc(C(=O)Nc2cc(Cl)cc(NS(C)(=O)=O)c2)cc1-c1ncc(N2CCC3(C2)CC3(F)F)cn1 (stereo not shown) [Example 494]
61.8 | 85.4 | Cn1cc(C(=O)Nc2cc(Cl)cc(NS(C)(=O)=O)c2)cc1-c1ccc(N2CCC3(C2)CC3(F)F)cn1 (stereo not shown) [Example 495]
65.2 | 31.6 | Cn1cc(C(=O)Nc2cc(Cl)cc(NS(C)(=O)=O)c2)cc1-c1ccc(N2CC(C(F)(F)F)C2)cn1 [Example 497]
65.4 | 38 | Cn1cc(C(=O)Nc2cc(Cl)cc(NS(C)(=O)=O)c2)cc1-c1ccc(N2CC3(C2)CC(F)(F)C3)cn1 [Example 498]
68.1 | 35.7 | Cc1sc(C(=O)Nc2cc(Cl)cc(NS(C)(=O)=O)c2)cc1-c1ccc(N2CC3(C2)CC(F)(F)C3)cn1 [Example 499]
56.4 | 77.7 | CC(C)Oc1cc(N2CC(F)(F)C2)cnc1-c1cc(C(=O)Nc2cc(Cl)cc(NS(C)(=O)=O)c2)cn1C [Example 513]
73.9 | 1.6 | COC1CCN(c2ccc(-c3cc(C(=O)Nc4cc(Cl)cc(NS(C)(=O)=O)c4)cn3C)nc2)CC1 [Example 515, N-(3-chloro-5-methanesulfonamidophenyl)-5-[5-(4-methoxypiperidin-1-yl)pyridin-2-yl]-1-methyl-1H-pyrrole-3-carboxamide]
71.2 | 8.1 | Cn1cc(C(=O)Nc2cc(Cl)cc(NS(C)(=O)=O)c2)cc1-c1ccc(N2CC(S(C)(=O)=O)C2)cn1 [Example 519]
63.3 | 43.3 | Cn1cc(C(=O)Nc2cc(Cl)cc(NS(C)(=O)=O)c2)cc1-c1ncc(N2CCC(F)(F)C2)cc1F [Example 525]
61.7 | 17.4 | Cn1cc(C(=O)Nc2cc(Cl)cc(NS(C)(=O)=O)c2)cc1-c1ncc(N2CCC(F)(F)C2)cn1 [Example 526]
65.3 | 42.4 | Cn1cc(C(=O)Nc2cc(Cl)cc(NS(C)(=O)=O)c2)cc1-c1ccc(N2CCC(F)(F)C2)cn1 [Example 527]
83.7 | 427 | Cn1cc(C(=O)Nc2cc(Cl)cc(NS(=O)(=O)C3CC3)c2)cc1-c1ccc(N2CC(F)(F)C2)cn1 [Example 530]
72.3 | 2600 | CCCS(=O)(=O)Nc1cc(Cl)cc(NC(=O)c2cc(-c3ccc(N4CC(F)(F)C4)cn3)n(C)c2)c1 [Example 531]
83.2 | 7.2 | Cc1sc(C(=O)Nc2cc(Cl)cc(NS(C)(=O)=O)c2)cc1-c1ccc(N2CC(F)(F)C2)cn1 [Example 533]
66.9 | 9.2 | Cn1cc(C(=O)Nc2cc(Cl)cc(NS(C)(=O)=O)c2)cc1-c1ccc(N2CCC2)cn1 [Example 538]
76 | 18.1 | Cn1cc(C(=O)Nc2cc(Cl)cc(NS(C)(=O)=O)c2)cc1-c1ccc(N2CC(F)C2)cn1 [Example 539]

The next lines start with the compound.

SMILES | DHX9 Biochemical Max Inhibition | IC50 [nM]
CS(=O)(=O)Nc1cc(Cl)cc(NC(=O)c2cc(-c3ncc(N4CC(F)(F)C4)cn3)cs2)c1 [Example 486] | 61.7 | 17.9
CS(=O)(=O)Nc1cc(Cl)cc(NC(=O)c2cc(-c3ncc(N4CC(F)(F)C4)cc3F)cs2)c1 [Example 488] | 61.1 | 67.9
Cc1sc(C(=O)Nc2cc(Cl)cc(NS(C)(=O)=O)c2)cc1-c1ncc(N2CC(C(F)(F)F)C2)cn1 [Example 489] | 68.7 | 29.9
Cn1cc(C(=O)Nc2cc(Cl)cc(NS(C)(=O)=O)c2)cc1-c1ncc(N2CC(C(F)(F)F)C2)cn1 [Example 493] | 67 | 24.8
Cc1sc(C(=O)Nc2cc(Cl)cc(NS(C)(=O)=O)c2)cc1-c1ccc(N2CC(C(F)(F)F)C2)cn1 [Example 496] | 71.9 | 19.5
Cc1sc(C(=O)Nc2cc(F)cc(NS(C)(=O)=O)c2)cc1-c1ncc(N2CC(C(F)(F)F)C2)cc1F [Example 501] | 73.3 | 70.9
Cc1sc(C(=O)Nc2cc(Cl)cc(NS(C)(=O)=O)c2)cc1-c1ncc(F)cc1N1CCS(=O)(=O)CC1 [Example 503] | 63.7 | 39.7
CC(=O)N1CCN(c2cc(F)cnc2-c2cc(C(=O)Nc3cc(Cl)cc(NS(C)(=O)=O)c3)sc2C)CC1 [Example 504] | 65.9 | 23.5
COC1CCN(c2cc(F)cnc2-c2cc(C(=O)Nc3cc(Cl)cc(NS(C)(=O)=O)c3)sc2C)C1 (stereo not shown) [Example 505] | 54.3 | 46.4
Cc1sc(C(=O)Nc2cc(Cl)cc(NS(C)(=O)=O)c2)cc1-c1ncc(F)cc1N1CCN(S(C)(=O)=O)CC1 [Example 506] | 47.4 | 184
Cc1sc(C(=O)Nc2cc(Cl)cc(NS(C)(=O)=O)c2)cc1-c1ncc(F)cc1N1CCC2(CC1)CC2 [Example 507] | 52.9 | 1510
CS(=O)(=O)Nc1cc(Cl)cc(NC(=O)c2cc(-c3ncc(N4CC(C(F)(F)F)C4)cn3)n(CC(F)F)c2)c1 [Example 508] | 67.1 | 96.5
CCS(=O)(=O)Nc1cc(Cl)cc(NC(=O)c2cc(-c3ncc(N4CC(F)C4)cn3)c(C)s2)c1 [Example 509] | 90.9 | 4
Cc1sc(C(=O)Nc2cc(Cl)cc(NS(C)(=O)=O)c2)cc1-c1ncc(N2CC(F)(F)C2)cn1 [Example 510] | 83.7 | 8.2
Cc1sc(C(=O)Nc2cc(Cl)cc(NS(C)(=O)=O)c2)cc1-c1ncc(N2CC3(C2)CC(F)(F)C3)cc1F [Example 511] | 89.8 | 51.1
Cc1sc(C(=O)Nc2cc(Cl)cc(NS(C)(=O)=O)c2)cc1-c1ncc(N2CCC3(COC3)C2)cc1F [Example 512] | 74.3 | 10.9

SMILES | DHX9 Biochemical Max Inhibition | IC50 [nM]
Cc1sc(C(=O)Nc2cc(Cl)cc(NS(C)(=O)=O)c2)cc1-c1ncc(N2CC(F)(F)C2)cc1OC1CCC1 [Example 514] | 73.8 | 73.3
Cn1cc(C(=O)Nc2cc(Cl)cc(NS(C)(=O)=O)c2)cc1-c1ncc(N2CCC3(CC2)CC3(F)F)cc1F [Example 518] | 56.7 | 153
Cn1cc(C(=O)Nc2cc(Cl)cc(NS(C)(=O)=O)c2)cc1-c1ncc(N2CCCC2)cn1 [Example 520] | 70.8 | 13.7
Cn1cc(C(=O)Nc2cc(Cl)cc(NS(C)(=O)=O)c2)cc1-c1ncc(N2CCC2)cn1 [Example 521] | 71.8 | 3.5
Cc1cc(C(=O)Nc2cc(Cl)cc(NS(C)(=O)=O)c2)cn1-c1ccc(N2CCC3(CC3)C2)cn1 [Example 522] | 71.8 | 40.8
Cc1cc(C(=O)Nc2cc(Cl)cc(NS(C)(=O)=O)c2)cn1-c1ccc(N2C3CCC2CC3)cn1 [Example 523] | 64.1 | 31.4
Cn1cc(C(=O)Nc2cc(Cl)cc(NS(C)(=O)=O)c2)cc1-c1ncc(N2CC(C(F)(F)F)C2)cc1F [Example 524, N-(3-chloro-5-methanesulfonamidophenyl)-5-{3-fluoro-5-[3-(trifluoromethyl)azetidin-1-yl]pyridin-2-yl}-1-methyl-1H-pyrrole-3-carboxamide] | 62.65 | 32.9
COc1cc(N2CC(F)(F)C2)cnc1-c1cc(C(=O)Nc2cc(Cl)cc(NS(=O)(=O)CCO)c2)sc1C [Example 528] | 61.5 | 26.2
Cc1sc(C(=O)Nc2cc(Cl)cc(NS(=O)(=O)CCO)c2)cc1-c1ncc(N2CC(C(F)(F)F)C2)cc1F [Example 529] | 57.3 | 163
Cc1sc(C(=O)Nc2cc(Cl)cc(NS(C)(=O)=O)c2)cc1-c1ncc(N2CC(F)(F)C2)cc1F [Example 532, N-(3-chloro-5-methanesulfonamidophenyl)-4-[5-(3,3-difluoroazetidin-1-yl)-3-fluoropyridin-2-yl]-5-methylthiophene-2-carboxamide] | 70.8 | 26.4
Cc1sc(C(=O)Nc2cc(Cl)cc(NS(C)(=O)=O)c2)cc1-c1ncc(N2CC(F)(F)C2)cc1OC(C)C [Example 534] | 78.3 | 19.9
COc1cc(N2CC(F)(F)C2)cnc1-c1cc(C(=O)Nc2cc(Cl)cc(NS(C)(=O)=O)c2)sc1C [Example 535] | 84.2 | 3.4
Cc1sc(C(=O)Nc2cc(Cl)cc(NS(C)(=O)=O)c2)cc1-c1ncc(N2CC(F)(F)C2)cc1OC(F)F [Example 536] | 69.7 | 45.3
Cc1cc(N2CC(F)(F)C2)cnc1-c1cc(C(=O)Nc2cc(Cl)cc(NS(C)(=O)=O)c2)sc1C [Example 537] | 63 | 20.8
Cn1cc(C(=O)Nc2cc(Cl)cc(NS(C)(=O)=O)c2)cc1-c1ncc(F)cc1F [Example 540, N-(3-chloro-5-methanesulfonamidophenyl)-5-(3,5-difluoropyridin-2-yl)-1-methyl-1H-pyrrole-3-carboxamide] | 67.5 | 17.4
Cc1sc(C(=O)Nc2cc(Cl)cc(NS(C)(=O)=O)c2)cc1-c1ncc(OC(C)C)cn1 [Example 541, N-(3-chloro-5-(methylsulfonamido)phenyl)-4-(5-isopropoxypyrimidin-2-yl)-5-methylthiophene-2-carboxamide] | 74.1 | 15.1
